Test system: hER
Assay: HPTLC-pYES (planar yeast estrogen screen) on RP-18 W plate, lac-Z reporter / MUG fluorescence
Type: cell-based, human
Settings: E2 equivalent calculated as EC50E2/EC50sample; recombinant Saccharomyces cerevisiae BJ3505; dose-response curves after separation on RP 18W plate, n=4
Method: HPTLC. Standard and sample solutions (0.1-10 µL) were applied on the HPTLC plate RP-18 W (Merck Millipore, Darmstadt, Germany) as 6.5 mm bands by the Automatic TLC Sampler 4 (ATS4; CAMAG, Muttenz, Switzerland). […] The standard mixture was applied by overspaying of the individual standard solutions, which allowed flexibility for individual mixtures and volumes. For determination of the recovery rate, 0.1 µL P1 sample was sprayed on the plate and oversprayed with 0.1 µL - 2 µL CAPE standard solution. After sample application, the start zones were dried for 1 min using a hair dryer. Development was performed in a Twin Trough Chamber (20 x 10 cm, CAMAG), using n-hexane - toluene - ethyl acetate 4:1.5:1, v/v/v (all from ROTH) up to a migration distance of 70 mm. After development, the plate was dried with cold air using a hair dryer for 2 min to remove the residual solvent. The developed plate was documented at 366 nm illumination using the TLC Visualizer (CAMAG).
Cell cultivation. Saccharomyces cerevisiae BJ3505 (protease-deficient, MATα, PEP4: HIS3, Prb1Δ1.6R, HIS3Δ200, lys2-208, trp1Δ101, ura3-52) generated by McDonnell et al. (61, 62) was used for the pYES-assay. All experimental studies were based on stock of the recombinant estrogen sensitive yeast cells stored in 30% glycerol supplemented growth media, consisting of D-glucose 1 g/L, yeast nitrogen base 6.8 g/L, both Sigma Aldrich, Steinheim, Germany, and amino acid components according to Routledge and Sumpter (50), at -80 °C. From the stock, cells were streaked on an agar plate with growth medium (30°C, two days) to supply colonies for further suspension cultivation. Shaking suspension cultures were inoculated in 20 mL growth medium and cultured at 30 °C at 100 rpm for 18 h. Prior to the assay, cell concentration and viability determination was performed using a hemocytometer and trypan blue (0.4% Sigma Aldrich) staining. For the pYES, the cell number was adjusted to 2.5 x 10^8 cells in 50 mL with 150 µM CuSO4 supplemented growth medium. To remain constant cell quality within the exponential growth phase for further studies, cells were split daily by 1:10 dilution.
HPTLC-pYES. As the HPTLC was developed and cells were prepared, the pYES assay was started. The plate was automatically immersed into the cell suspension using the TLC Immersion Device (CAMAG) with a speed of 3.5 cm/s and an immersion time of 5 s. Thus, the cell suspension was homogeneously transferred onto the plate surface. The wettened plate was incubated in a horizontal position in a plastic box under almost 100% humidified air at 30 °C for 3 h. Thereafter, the plate was dried with cold air using a hair dryer for 2 min. For determination of the resulting ß-galactosidase, the plate was treated with the substrate 4-methylumbelliferyl-ß-D-galactopyranoside (MUG, Roth). ß-galactosidase acts on the substrate MUG to produce 4-methylumbelliferone (MU), detected as blue fluorescence at pH>7. MUG was dissolved in DMSO (20 mg/mL, Roth) and added to the reaction buffer (citric acid 6 g/L, disodium hydrogen phosphate 10 g/L, pH 12, Merck) to a final concentration of 0.5 mg/mL. The dried plate was immersed in the substrate solution according to the previous speed and immersion time. A second incubation period of 60 min at 37°C followed. The substrate reaction was terminated by immersion of the plate into a solution of glycine - NaOH (0.1 M, Roth), pH°12. […] Fluorescence measurement at 366/>400 nm was performed with the mercury lamp using the TLC Scanner 3 (CAMAG). Images were taken at 366 nm illumination using the Reprostar 3 documentation system (CAMAG).
The half maximal effective concentration (EC50) was calculated for comparison of the receptor affinities.

SMILES | E2Eq
CC(C)(c1ccc(O)cc1)c1ccc(O)cc1 [BPA, bisphenol A] | 3.3x10^-4
C#C[C@]1(O)CC[C@H]2[C@@H]3CCc4cc(O)ccc4[C@H]3CC[C@@]21C [EE2, 17α-ethinylestradiol] | 0.3
CCCCCCCCCc1ccc(O)cc1 [NP, 4-n-Nonylphenol] | 2.3x10^-4

Same assay, conditions: standard solutions or sample zone detected with the pYES; qualitative

SMILES | estrogenic/bioactive effect in pYES
O=C(/C=C/c1ccc(O)c(O)c1)OCCc1ccccc1 [CAPE, Caffeic acid phenethyl ester] | bioactive EDC zone
O=c1cc(-c2ccc(O)c(O)c2)oc2cc(O)cc(O)c12 [luteolin] | showed an estrogenic/bioactive effect
O=c1c(O)c(-c2ccc(O)c(O)c2)oc2cc(O)cc(O)c12 [quercetin] | showed an estrogenic/bioactive effect

From EP2919004A1, “Bioassays on modified TLC/HPTLC plates” (Merck Patent GmbH, priority 2014, dated 2015)
